Consider nine molecules from patent US20060135443A1, “Use of Na*/K*-ATPase inhibitors and antagonists thereof” (Bionaut Pharmaceuticals, Inc., priority 2004, published 2006).

“Also recorded” adds a separate entry of the source. Some results are limits rather than exact numbers.

Usually Kd stands for the equilibrium constant for the complex coming apart. For orientation: IC50 means the point on the concentration scale where inhibition reaches its midpoint.

The test system of series [1] is Panc-1 human pancreatic tumors. Description: Panc-1 human pancreatic tumor xenograft. Type of series: in vivo, nude mice. As to conditions: Gemcitabine 40 mg/kg q3d×4; for Final Tumor weight Day 25 (Mean): BNC1 20 mg/ml s.c. osmotic pump 0.5 μl/hr, n=8; for % TGI: Day 25, BNC1 20 mg/ml s.c. C.I. Here is the method:
(§1) Female nude mice (nu/nu) between 5 and 6 weeks of age weighing approximately 20 g were implanted subcutaneously (s.c.) by trocar with fragments of human tumors harvested from s.c. grown tumors in nude mice hosts. When the tumors were approximately 60-75 mg in size (about 10-15 days following inoculation), the animals were pair-matched into treatment and control groups. Each group contains 8-10 mice, each of which was ear tagged and followed throughout the experiment.
(§2) The administration of drugs or controls began the day the animals were pair-matched (Day 1). Pumps (Alzet® Model 2002) with a flow rate of 0.5 μl/hr were implanted s.c. between the shoulder blades of each mice. Mice were weighed and tumor measurements were obtained using calipers twice weekly, starting Day 1. These tumor measurements were converted to mg tumor weight by standard formula, (W^2×L)/2. The experiment is terminated when the control group tumor size reached an average of about 1 gram. Upon termination, the mice were weighed, sacrificed and their tumors excised. The tumors were weighed and the mean tumor weight per group was calculated.
The control animals received pumps containing vehicle (50% DMSO in DMEM). The mice treated with standard chemotherapy agent received intra-peritoneal injections of Gemcitabine at 40 mg/kg every 3 days for 4 treatments (q3d×4). Each data point represent average tumor weight (n=8) and error bars indicate SEM.
Gem was also included in the experiment as a comparison.

For series [2], the system named is Caki-1 human renal cancer xenograft. The experiment in a line: Caki-1 human renal cancer xenograft. It is filed as in vivo, nude mice. The conditions noted are these: for Final Tumor weight Day 22 (Mean): BNC1 20 mg/ml s.c. pump 0.5 μl/hr, n=10; for Final Tumor weight Day 22 (Mean) / % TGI: Cytoxan 100 or 300 ip; for % TGI: Day 22, BNC1 20 mg/ml s.c. C.I. Here is the method: as §1, §2
Cytoxan (q1d×1) was injected at 100 mg/kg (Cyt 100) or 300 mg/kg (Cyt 300).

The test system of series [3] is A549(ROS) tumor cell line. Description: ROS levels by FACS. It is filed as cell-based, human. The conditions noted are these: normoxia, 4 hrs. The protocol:
(§3) Thirty minutes prior to the termination of incubation period, 2,7-dichlorofluorescin diacetate (CFH-DA, […]) was added to the cells and incubated for the last 30 min at 37° C. The ROS levels were determined by FACS analysis.
For orientation: In flow cytometry, cells or beads pass a laser one at a time.

Series [4] deals with Na^+/K^+-ATPase α peptide isoforms. As to conditions: four α peptide isoforms, almost all mammalian species; cited from earlier work.
In another series the test system is cancer cell lines. The experiment in a line: proliferation of cancer cell lines. Type of series: cell-based. The conditions noted are these: for decrease of concentration effective for inhibiting proliferation of cancer cells: in combination with a steroid signal modulator (Casodex). An excerpt:
The concentration at which a cardiac glycoside is effective as part of an antiproliferative treatment may be further decreased by combination with an additional agent that negatively regulates HIF-responsive genes, such as a redox effector or a steroid signal modulator. […] Therefore, in certain embodiments, the invention provides combination therapies of cardiac glycosides with, for example, steroid signal modulators and/or redox effectors. Additionally, cardiac glycosides may be combined with radiation therapy, taking advantage of the radiosensitizing effect that many cardiac glycosides have.

The conditions of series [5]: cited from earlier work; for max. plasma concentration: in vivo.
Series [6] concerns A549 human non-small-cell-lung carcinoma. Description: A549 human non-small-cell-lung carcinoma xenograft. It is filed as in vivo, nude mice. As to conditions: for animals with tumor at the end of the experiment: 8 animals per group; for % Weight Change at Day 38 / Final Tumor weight Day 38 (Mean) / % TGI: Carboplatin 100 mg/kg ip qd×1; for % Weight Change at Day 38 / Final Tumor weight Day 38 (Mean): n=8; for % TGI: Day 38, BNC1 20 mg/ml s.c. C.I. Here is the method: as §1, §2
Carboplatin (q1d×1) was injected at 100 mg/kg (Carb).
(In xenograft studies the graft and the host belong to different species.)

The subject of the next series is VEGF. The experiment in a line: VEGF secretion in tumor cells. Type of series: cell-based.
Series [7] concerns A549 (NSCLC) Sentinel Line. The experiment in a line: Sentinel Line reporter assay (FACS, FDG). As to conditions: 40 hrs; for cell death / reporter activity: agent alone; for cell death: Sentinel Lines; for reporter activity: mitoxantrone 8 nM, paclitaxel 1.5 nM, carboplatin 15 μM, gemcitabine 2.5 nM, Iressa 4 μM. It is filed as cell-based, human. Here is the method:
The expression level of beta-galactosidase gene in sentinel lines was determined by using a fluorescent substrate fluorescein di-B-D-Galactopyranside (FDG, Marker Gene Tech, #M0250) introduced into cells by hypotonic shock. Cleavage by beta-galactosidase results in the production of free fluorescein, which is unable to cross the plasma membrane and is trapped inside the beta-gal positive cells. Briefly, the cells to be analyzed are trypsinized, and resuspended in PBS containing 2 mM FDG (diluted from a 10 mM stock prepared in 8:1:1 mixture of water: ethanol: DMSO). The cells were then shocked for 4 minutes at 37° C. and transferred to FACS tubes containing cold 1×PBS on ice. Samples were kept on ice for 30 minutes and analyzed by FACS in FL1 channel.
Sentinel Line cells with beta-galactosidase reporter gene were plated at 1×10^5 cells/10 cm dish. […] After 40 hrs, the cells were trypsinized and the expression level of reporter gene was determined by FDG loading.
In experiments of FIG. 10, the A549 sentinel line was incubated with Gemcitabine in the presence or absence of indicated Bionaut compounds (including the cardiac glycoside compound BNC4) for 40 hrs. The reporter activity was measured by FACS analysis.
A general note: In a reporter assay the amount or activity of a reporter protein is the signal.

Series [8] relates to HIF-1α. Description: HIF-1α Western blot in tumor cells. It is filed as cell-based, human. The conditions noted are these: Hep3B, Caki-1 or Panc-1 cells under hypoxia. The protocol: For HIF1-alpha Western blots, Hep3B cells were seeded in growth medium at a density of 7×10^6 cells per 100 mm dish. […] Samples were fractionated on 3-8% Tris-Acetate gel (Invitrogen NUPAGE system) by sodium dodecyl sulfate (SDS)-polyacrylamide gel electropherosis and transferred onto nitrocellulose membrane. […] Anti-Beta-actin monoclonal antibody (Abcam, ab6276-100) was used at a 1:5000 dilution with a 30-minute incubation at room temperature.
The cells were lysed and proteins were resolved by SDS-PAGE and transferred to a nylon membrane.
as §3

The test system of series [9] is HIF-1α. The experiment in a line: HIF-1α induced under normoxia by PHD inhibitor L-mimosone, Western blot. Type of series: cell-based, human. The conditions noted are these: Hep3B cells, 200 μM L-mimosone, 18 h. The protocol:
Abundance of HIF1α and β-actin was determined by western blotting.

In series [10] the test system is other receptors involved in blood pressure regulation or hormonal control. The conditions noted are these: Ferrari et al. 1998; cited from earlier work.
The target in series [11] is purified sodium, potassium ATPase enzyme (Na-K ATPase). The conditions noted are these: read-out: IC50, displaced ouabain from its binding sites; Ferrari et al. 1998; cited from earlier work.

For `C[C@@H]1O[C@@H](O[C@H]2C[C@@H](O)[C@]3(CO)[C@H]4[C@H](O)C[C@]5(C)[C@@H](C6=CC(=O)OC6)CC[C@]5(O)[C@@H]4CC[C@]3(O)C2)[C@H](O)[C@H](O)[C@H]1O` [BNC1, ouabain], in series [1], the “Final Tumor weight Day 25 (Mean)” value was 200 mg and the “% TGI” value came to 82.15%. In addition, the “tumor growth (in words)” value in [1] (BNC1 20 mg/ml s.c. pump) is recorded as “significantly reduce tumor growth”. In addition, in series [2], the “Final Tumor weight Day 22 (Mean)” value is given as 314.9 mg and the “% TGI” value worked out at 81.45%. Besides, the “anti-tumor activity (in words)” value in series [2] (BNC1 20 mg/ml s.c. pump, Cytoxan 100 or 300 mg/kg) is “potent anti-tumor agent when used alone”. For the same molecule, the ROS production result in series [3] is “induces ROS production”. Besides, in [4], the Kd was ≤ 0.001 µM. The “decrease of concentration effective for inhibiting proliferation of cancer cells” value with cancer cell lines came to 5 fold. Besides, in [5], the max. plasma concentration result is “about 0.03 μg/mL”. In series [6], the “animals with tumor at the end of the experiment” value is listed as “none of the experimental animals showed any signs of tumor” and the “% TGI” value is reported as 100.00%. Also, the “anti-tumor activity (in words)” value in series [6] (BNC1 20 mg/ml s.c. pump, Carboplatin 100 mg/kg) was “potent anti-tumor activity”. For the same molecule, in series [6] (BNC1 20 mg/ml s.c. pump), the “% Weight Change at Day 38” value is 21% and the “Final Tumor weight Day 38 (Mean)” value was determined as 0.0 mg. In the series with VEGF, the “secretion of the angiogenesis factor VEGF” value is reported as “inhibits”.
In the case of `C[C@@H]1O[C@@H](O[C@@H]2C=C3CC[C@@H]4[C@H](CC[C@]5(C)[C@@H](c6ccc(=O)oc6)CC[C@]45O)[C@@]3(C)CC2)[C@H](O)[C@H](O)[C@H]1O` [BNC4, proscillaridin], in the series with cancer cell lines, the “decrease of concentration effective for inhibiting proliferation of cancer cells” value is reported as 5 fold. For the same molecule, the IC50 in the series with cancer cell lines (test system not named at the place, read-out: predicted IC50) was 2 to 8 ng/mL. The “plasma half-life in human” value in series [5] (according to the literature) is “about 40 hours”. The max. plasma concentration result in series [5] was “about 0.001 μg/mL”. Further, the “Gemcitabine-induced stress response (reporter activity)” value in [7] (incubated with Gemcitabine plus compound) is reported as “significantly shift the reporter activity to the left”. Besides, the “potency in inhibiting HIF-1α expression relative to BNC1” value in the series with HIF-1α [8] is “about 10 times”. Also, in the series on VEGF, the “secretion of the angiogenesis factor VEGF” value is listed as “inhibits”. Besides, the “HIF-1α accumulation induced by L-mimosone” value with HIF-1α [9] is on record as “blocks HIF-1α induction; also recorded: eliminated HIF-1α accumulation”.
As for `N.N.O=C([O-])C1(C(=O)[O-])CCC1.[Pt+2]` [Carboplatin], in series [7], the cell death result is “increases” and the reporter activity result is reported as “increases”. Moreover, in [6], the “animals with tumor at the end of the experiment” value is on record as “all 8” and the “% TGI” value was 39.50%. In series [6] (BNC1 20 mg/ml s.c. pump), the “% Weight Change at Day 38” value worked out at 16% and the “Final Tumor weight Day 38 (Mean)” value is 509.75 mg.
On to `O=P1(N(CCCl)CCCl)NCCCO1` (centres unmarked) [Cytoxan], for which, in series [2], the “Final Tumor weight Day 22 (Mean)” value amounted to 769 mg and the “% TGI” value is reported as 54.70%. For the same molecule, in series [2] (listed as Cytoxan300), the “Final Tumor weight Day 22 (Mean)” value is given as 93.7 mg and the “% TGI” value stood at 94.48%.
Take `Nc1ccn([C@@H]2O[C@H](CO)[C@@H](O)C2(F)F)c(=O)n1` [Gemcitabine]: in series [1], the “Final Tumor weight Day 25 (Mean)” value was determined as 701.3 mg and the “% TGI” value was found to be 37.40%. Besides, in [7], the reporter activity result was “elevated reporter activity”.
As to `COc1cc2ncnc(Nc3ccc(F)c(Cl)c3)c2cc1OCCCN1CCOCC1` [Iressa], the reporter activity entry in [7] is reported as “reduction”.
For `CC12CCC(O)CC1CCC1C2CCC2(C)C(O)(c3ccoc3)CCC12O` (stereo not drawn) [PST 2238, 17beta-(3-furyl)-5beta-androstane-3beta, 14beta, 17alpha-triol], the “interaction with other receptors” value in series [10] is on record as “without interacting”. In addition, in series [11], the IC50 was 1.7 µM.
Regarding `O=C1c2c(O)ccc(O)c2C(=O)c2c(NCCNCCO)ccc(NCCNCCO)c21` [mitoxanthrone, mitoxantrone], in series [7], the cell death result was “increases” and the reporter activity result was “increases”.
In the case of `CC(=O)O[C@H]1C(=O)[C@@]2(C)[C@H]([C@H](OC(=O)c3ccccc3)[C@]3(O)C[C@H](OC(=O)[C@H](O)[C@@H](NC(=O)c4ccccc4)c4ccccc4)C(C)=C1C3(C)C)[C@]1(OC(C)=O)CO[C@@H]1C[C@@H]2O` [paclitaxel], in [7], the cell death entry was “increases” and the reporter activity result is listed as “increases”.
